{
  "source": "patent US10640463B2",
  "about": "“Chlorhexidine crystal forms and uses thereof in medicine” (Queen Mary University of London, priority 2016, dated 2020)",
  "key": {"[1]": {"assay": "Chlorhexidine release from electrospun PLA fibres at different temperatures", "format": "physicochemical", "conditions": "5% in electrospun PLA fibres, deionized water, after 120 h", "description": "Electrospinning was utilized to fabricate spherical chlorhexidine chloride compound doped polylactic acid (PLA) fibres. Polylactic acid (Nature works, 2002D) was dissolved in a mixed solvent of chloroform and acetone (3:1 by volume) at 7 wt %. Spherical chlorhexidine chloride compounds were added at 5% weight to the PLA and mixed using a Rotomix. Electrospinning was carried out at room temperature (25° C.), with a pumping rate set at 1 ml/h, working distance at 15 cm, and voltage at 18 kv. Electrospun PLA fibres were collected on a foil. For the chlorhexidine release test, the fibres were weighed (Salter ANDER-180A weighing scale, UK) and divided into cuvettes, and each sample was 25 mg (n=5). Deionized water was added to each cuvette and fibres were kept immersed. Three groups of chlorhexidine chloride compound doped fibres were tested at different temperatures (25, 37 and 60° C.). At each time point (1, 3, 5, 10, 20, 30, 45, 72, 96, 120 h), the solutions were collected for the UV absorption test (Lambda 35, Perkin Elmer, USA) and replaced with fresh deionized water as in Example 6."}, "[2]": {"assay": "Chlorhexidine release from PMMA resin", "format": "physicochemical", "conditions": "5% loading, after 650 hours", "description": "For the release study, all sample resin discs (HEMA-UDMA) containing chlorhexidine chloride compounds or chlorhexidine diacetate powder prepared in Example 5 were kept in cuvettes containing 3 ml deionized water, and kept at room temperature. And at each time point, solutions were collected for UV absorption tests (Lambda 35, Perkin Elmer, USA) and replaced with fresh deionized water.\nThe PMMA resin system was also tested for the release kinetics of spherical chlorhexidine chloride compounds. Specifically, PMMA resin was prepared by mixing the Simplex Rapid Liquid and powder (Kemdent, Lot: 920 758) at a weight ratio of 1:2. The self-cure process took about 15 min, and after which the mixture was filled into a Teflon mould in the same way and pressed (Mestra, Mod.030350). To incorporate the spherical chlorhexidine chloride compounds, they were previously mixed with the Simplex Rapid powder (5% weight of mixture), and the liquid was added."}, "[3]": {"test_system": "Fusobacterium nucleatum sub species polymorphum (strain-NCTC10562)", "assay": "MIC and MBC of chlorhexidine spheres", "format": "cell-based", "set-up": "key to MIC/MBC class at this concentration: The MIC was defined as the lowest concentration of chlorhexidine spheres that inhibited the growth of microorganism at each time point; The MBC was the lowest concentration of chlorhexidine spheres giving no observable bacterial growth", "conditions": "for MBC: F. nucleatum sub sp. polymorphum; for MIC: planktonic F. nucleatum sub sp. polymorphum", "description": "(§1) The effectiveness of the chlorhexidine spheres against a panel of periodontal pathogens was evaluated by measurements of the growth (optical density) of bacterial cultures. Porphyromonas gingivalis (strain-W50), Fusobacterium nucleatum sub species polymorphum (strain-NCTC10562) and Aggregatibacter actinomycetemcomitans (strain-Y4) were grown on blood agar plates and in brain heart infusion (BHI) broth in an anaerobic environment with an atmosphere of 5% H2, 10% CO2, and 85% N2 at 37° C. for 2 days. BHI broth was pre-reduced with 5 μg/ml hemin and 5 μg/ml menadione bisulphite added. Bacterial numbers in the BHI cultures were determined and standardised by serial dilution and enumeration of colony forming units (CFUs) on agar plates. After overnight incubation, the bacterial suspensions were diluted 1:20 with fresh BHI medium to achieve an optical density of 0.1 for P. gingivalis and A. actinomycetemcomitans and 0.2 for F. nucleatum sub sp. polymorphum at 595 nm (OD595) to give approximately 6.5×10^7 colony-forming units (CFU) per ml.\n(§2) Negative control (bacterial inoculum only but no chlorhexidine spheres) and blank (medium only) wells were also included. The microtiter plates were incubated for 0, 24 and 48 hours in anaerobic conditions as above and the optical density (OD) was determined at 595 nm to quantify bacterial growth. The MIC was defined as the lowest concentration of chlorhexidine spheres that inhibited the growth of microorganism at each time point. The MBC was the lowest concentration of chlorhexidine spheres giving no observable bacterial growth. MBC was determined following transfer of the microtiter well contents to micro centrifuge tubes, centrifuging to pellet the bacterial cells, washing to remove any remaining chlorhexidine spheres and incubation on blood agar plates. After incubation anaerobically growth of bacteria that had survived the treatment was recorded."}, "[4]": {"test_system": "Porphyromonas gingivalis (strain-W50)", "assay": "MIC and MBC of chlorhexidine spheres", "format": "cell-based", "set-up": "key to MIC/MBC class at this concentration: The MIC was defined as the lowest concentration of chlorhexidine spheres that inhibited the growth of microorganism at each time point; The MBC was the lowest concentration of chlorhexidine spheres giving no observable bacterial growth", "description": "as §1, §2"}, "[5]": {"test_system": "Aggregatibacter actinomycetemcomitans (strain-Y4)", "assay": "MIC and MBC of chlorhexidine spheres", "format": "cell-based", "set-up": "key to MIC/MBC class at this concentration: The MIC was defined as the lowest concentration of chlorhexidine spheres that inhibited the growth of microorganism at each time point; The MBC was the lowest concentration of chlorhexidine spheres giving no observable bacterial growth", "conditions": "for MIC: planktonic A. actinomycetemcomitans", "description": "as §1, §2"}, "[6]": {"test_system": "L929 cells", "assay": "Cytotoxicity assay (MTT)", "conditions": "for relative cellular viability: 0.001% chlorhexidine spheres", "experimental": "0.5% chlorhexidine spheres stock solution was used to prepare fresh successive dilutions in sterile deionised water to obtain the final concentrations ranging from 0.0005 to 0.25%. For controls (untreated cultures), sterile deionised water was used. 25 μl of each treatment were added into respective wells to achieve final concentrations ranging from 0.00005-0.025%.\nL929 cells, a mouse fibroblast-like cell line (ECACC 85011425) were cultured in Dulbecco's Modified Eagle's Medium (DMEM; Lonza, UK) supplemented with 10% fetal bovine serum (FBS) with 100 IU/mL penicillin, 100 μg/mL streptomycin and 2 mmol/L glutamine (all from Invitrogen, UK) in an humidified incubator with 10% CO2 and 95% air at 37° C.\nCell metabolic activity was evaluated by measuring the mitochondrial activity using a method commonly known as a methyl-tetrazolium (MTT) assay. MTT assay was carried out according to the protocols outlined in ISO 1 0993-5:2009 (Biological evaluation of medical devices—Part 5: Tests for in vitro cytotoxicity).\nTrypsinisation was performed by routine methods and cell suspension was counted using a haemocytometer and seeded in 96-well microtiter plates at a concentration of 10,000 cells per well. The cells were then left overnight in the incubator to adhere to the wells. Following overnight incubation, medium was removed and cells were washed twice with PBS. The cells were then treated with different concentrations of chlorhexidine spheres (0.00005-0.025%) for 24 and 48 hours. Following treatment, culture medium containing chlorhexidine spheres was removed and 50 μL of 5 mg/mL tetrazolium salt MTT (Sigma-Aldrich, Gillingham, UK) was added to each well and incubated in 37 C for 4 h. Formazan crystals generated by mitochondrial enzyme activity were dissolved by 100 μl of isopropanol and the intensity of purple coloured reaction product quantified by measuring the absorbance spectra at 570 nm. A cell viability level below 70% of control (no treatment) was regarded as the toxic concentration according to the ISO protocol."}, "[7]": {"conditions": "0.0005% chlorhexidine spheres, 24 hours"}, "[8]": {"conditions": "0.0005% chlorhexidine spheres, 48 hours"}, "[9]": {"conditions": "0.001% chlorhexidine spheres, 24 hours"}, "[10]": {"conditions": "0.001% chlorhexidine spheres, 48 hours"}, "[11]": {"conditions": "0.002% chlorhexidine spheres, 24 hours"}, "[12]": {"conditions": "0.002% chlorhexidine spheres, 48 hours"}, "[13]": {"conditions": "0.00025% chlorhexidine spheres, 24 hours"}, "[14]": {"conditions": "0.00025% chlorhexidine spheres, 48 hours"}, "[15]": {"conditions": "planktonic P. gingivalis, 48 hours"}},
  "note": "Where “and” joins values, the source holds several entries; their conditions need not be identical. Identical values can stand only once.",
  "data": [
    {"smiles": "Cl.Cl.N=C(NCCCCCCNC(=N)NC(=N)Nc1ccc(Cl)cc1)NC(=N)Nc1ccc(Cl)cc1", "note": "[chlorhexidine spheres]", "values": [
      {"measurement": "chlorhexidine dissolved", "setting": "[1]; 25° C.", "value": 65.8, "unit": "%"},
      {"measurement": "chlorhexidine dissolved", "setting": "[1]; 37° C.", "value": 79.7, "unit": "%"},
      {"measurement": "chlorhexidine dissolved", "setting": "[1]; 60° C.", "value": 89.6, "unit": "%"},
      {"measurement": "chlorhexidine released", "setting": "[2]", "value": 8, "unit": "%"},
      {"measurement": "MIC/MBC class at this concentration", "setting": "[3]; [7]", "value": "No Inhibition"},
      {"measurement": "MIC/MBC class at this concentration", "setting": "[3]; [8]", "value": "No Inhibition"},
      {"measurement": "MIC/MBC class at this concentration", "setting": "[3]; [9]", "value": "MBC"},
      {"measurement": "MIC/MBC class at this concentration", "setting": "[3]; [10]", "value": "MBC"},
      {"measurement": "MIC/MBC class at this concentration", "setting": "[3]; [11]", "value": "MBC"},
      {"measurement": "MIC/MBC class at this concentration", "setting": "[3]; [12]", "value": "MBC"},
      {"measurement": "MIC/MBC class at this concentration", "setting": "[3]; 0.004% chlorhexidine spheres, 24 hours", "value": "MBC"},
      {"measurement": "MIC/MBC class at this concentration", "setting": "[3]; 0.004% chlorhexidine spheres, 48 hours", "value": "MBC"},
      {"measurement": "MBC", "setting": "[3]; 24 hours", "value": 0.001, "unit": "%"},
      {"measurement": "MBC", "setting": "[3]; 48 hours", "value": 0.001, "unit": "%"},
      {"measurement": "threshold for inhibition (MIC)", "setting": "[3]; F. nucleatum, time not stated", "value": 0.001, "unit": "%"},
      {"measurement": "MIC", "setting": "[3]; 24 hours", "value": "0.0005% and 0.001%"},
      {"measurement": "MIC", "setting": "[3]; 48 hours", "value": 0.001, "unit": "%"},
      {"measurement": "MIC/MBC class at this concentration", "setting": "[4]; [13]", "value": "MIC"},
      {"measurement": "MIC/MBC class at this concentration", "setting": "[4]; [14]", "value": "MBC"},
      {"measurement": "MIC/MBC class at this concentration", "setting": "[4]; [7]", "value": "MBC"},
      {"measurement": "MIC/MBC class at this concentration", "setting": "[4]; [8]", "value": "MBC"},
      {"measurement": "MIC/MBC class at this concentration", "setting": "[4]; [9]", "value": "MBC"},
      {"measurement": "MIC/MBC class at this concentration", "setting": "[4]; [10]", "value": "MBC"},
      {"measurement": "MIC/MBC class at this concentration", "setting": "[4]; [11]", "value": "MBC"},
      {"measurement": "MIC/MBC class at this concentration", "setting": "[4]; [12]", "value": "MBC"},
      {"measurement": "concentrations with antimicrobial effect", "setting": "[4]; P. gingivalis", "value": "≥ 0.00025", "unit": "%"},
      {"measurement": "MBC", "setting": "[4]; P. gingivalis, 24 hours", "value": 0.0005, "unit": "%"},
      {"measurement": "MIC", "setting": "[4]; planktonic P. gingivalis, 24 hours", "value": 0.00025, "unit": "%"},
      {"measurement": "MBC", "setting": "[4]; [15]", "value": 0.00025, "unit": "%"},
      {"measurement": "MIC", "setting": "[4]; [15]", "value": 0.00025, "unit": "%"},
      {"measurement": "MIC/MBC class at this concentration", "setting": "[5]; [13]", "value": "MBC"},
      {"measurement": "MIC/MBC class at this concentration", "setting": "[5]; [14]", "value": "MBC"},
      {"measurement": "MIC/MBC class at this concentration", "setting": "[5]; [7]", "value": "MBC"},
      {"measurement": "MIC/MBC class at this concentration", "setting": "[5]; [8]", "value": "MBC"},
      {"measurement": "MIC/MBC class at this concentration", "setting": "[5]; [9]", "value": "MBC"},
      {"measurement": "MIC/MBC class at this concentration", "setting": "[5]; [10]", "value": "MBC"},
      {"measurement": "concentrations with antimicrobial effect", "setting": "[5]; A. actinomycetemcomitans", "value": "≥ 0.00025", "unit": "%"},
      {"measurement": "MBC", "setting": "[5]; A. actinomycetemcomitans, 24 and 48 hour cultures", "value": 0.00025, "unit": "%"},
      {"measurement": "MIC", "setting": "[5]; 24 hours", "value": 0.00025, "unit": "%"},
      {"measurement": "MIC", "setting": "[5]; 48 hours", "value": 0.00025, "unit": "%"},
      {"measurement": "cellular viability", "setting": "[6]; 0.00005% to 0.00025%, both 24 and 48 hours", "value": "approximately 90%"},
      {"measurement": "cellular viability", "setting": "[6]; 0.0005%, 24 hours", "value": "> 80", "unit": "%"},
      {"measurement": "cellular viability", "setting": "[6]; 0.0005%, 48 hours", "value": "below 70%"},
      {"measurement": "relative cellular viability", "setting": "[6]; 24 hours", "value": "approximately 50%"},
      {"measurement": "relative cellular viability", "setting": "[6]; 48 hours", "value": 20, "unit": "%"},
      {"measurement": "concentrations demonstrating cytotoxicity", "setting": "[6]; L929 cells, viability below 70% of control regarded as toxic", "value": "above 0.0005%"}
    ]}
  ]
}
